Patent US5807889A, “Aminomethylindans, -benzofuranes and -benzothiophenes” (H. Lundbeck A/S, priority 1992, dated 1998)

Target: T1, 5-HT1A receptors (Rattus norvegicus, UniProt P19327)
T1 sequence (P19327 1-422): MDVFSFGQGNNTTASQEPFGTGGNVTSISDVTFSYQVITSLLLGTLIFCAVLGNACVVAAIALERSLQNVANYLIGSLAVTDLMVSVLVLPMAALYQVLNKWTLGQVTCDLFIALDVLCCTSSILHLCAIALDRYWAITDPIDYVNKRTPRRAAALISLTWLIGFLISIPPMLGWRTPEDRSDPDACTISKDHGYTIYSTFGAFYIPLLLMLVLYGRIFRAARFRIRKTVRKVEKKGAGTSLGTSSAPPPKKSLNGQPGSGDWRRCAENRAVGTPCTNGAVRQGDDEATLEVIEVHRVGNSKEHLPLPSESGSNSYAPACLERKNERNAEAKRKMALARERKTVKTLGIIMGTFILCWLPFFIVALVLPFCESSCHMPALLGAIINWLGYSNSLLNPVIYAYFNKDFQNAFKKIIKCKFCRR
Test: Inhibition of 3H-8-OH-DPAT binding to serotonin 5-HT1A receptors in rat brain in vitro
Design: 5-HT1A receptors in membranes from rat brain minus cerebellum; from tissue; host or cells: brain minus cerebellum of male Wistar (Mol:Wist) rats, crude membranes; species or system rat (male Wistar)
Settings: 3H 8-OH DPAT binding IC50, 1 nM 3H-8-OH-DPAT, rat brain minus cerebellum membranes, 37° C., 15 min
Method: Male Wistar (Mol:Wist) rats (125-250 g) are sacrificed and the brain is dissected and weighed. The brain tissue minus cerebellum is homogenized (Ultra Turrax, 20 sec) in 10 ml of ice cold 50 nM Tris buffer pH 8.0 (at 25° C.) containing 120 mM NaCl, 4 mM CaCl2 and 4 mM MgCl2. The homogenate is centrifuged at 20,000 g for 10 min at 4° C. The pellet is homogenized in 10 ml of buffer and incubated at 37° C. for 10 min. The homogenate is centrifuged as above and the pellet is homogenized in 100 vol (w/v) ice cold buffer containing 10 μM of pargyline.
Incubation tubes kept on ice in triplicate receive 100 μl of drug solution in water (or water for total binding) and 1000 μl of tissue suspension (final tissue content corresponds to 10 mg original tissue). […] After incubation for 15 min the samples are filtered under vacuum (0-50 mBar) through Whatman GF/F filters (25 mm). The tubes are rinsed with 5 ml ice cold 0.9% NaCl which is then poured on the filters. Thereafter, the filters are washed with 2×5 ml 0.9% NaCl. The filters are placed in counting vials and 4 ml of appropriate scintillation fluid (e.g. Picofluor™ 15) are added. After shaking for 1 h and storage 2 h in the dark the content of radioactivity is determined by liquid scintillation counting. Specific binding is obtained by subtracting the nonspecific binding in the presence of 10 μM of 5-HT.
For determination of the inhibition of binding five concentrations of drugs covering 3 decades are used.
The IC50 -value is determined as the concentration, at which the binding is 50% of the total binding in control samples minus the nonspecific binding in the presence of 10 μM of 5-HT.

| SMILES | IC50 [nM] |
| --- | --- |
| CCCN(CCC)CC1CCc2ccc(NC(=O)N(C)C)cc21 (centres unmarked) [Compound 4c, 6-(3,3-dimethyl-1-ureido)-1-(N,N-dipropylaminomethyl)indan] | 10 |
| CCCN(CCC)CC1CCc2ccc(NS(C)(=O)=O)cc21 (centres unmarked) [Compound 2g, 1-(N,N-dipropylaminomethyl)-6-(methylsulphonylamino)indan] | 16 |
| CCCN(CCC)CC1CSc2ccc(NC=O)cc21 (centres unmarked) [Compound 5a, 3-(N,N-dipropylaminomethyl)-5-formylamino-2,3-dihydrobenzothiophene] | 3.4 |
| CC(=O)Nc1ccc2c(c1)C(CN(C)CCCCc1c[nH]c3ccccc13)CC2 (centres unmarked) [Compound 13c, 6-Acetylamino-1-[N-[4-(indol-3-yl)butan-1-yl]-N-methylaminomethyl]indan] | 1.5 |
| CCCN(CCC)CC1CCc2cc(Cl)c(NC(C)=O)cc21 (single isomer, unassigned; (-)) [Compound 11b, (-)-6-Acetylamino-5-chloro-1-(N,N-dipropylaminomethyl)indan] | 15 |
| CC(=O)Nc1ccc2c(c1)C(CN(C)C)CC2 (centres unmarked) [Compound 2b, 6-Acetylamino-1-(N,N-dimethylaminomethyl)indan] | 25 |
| CCCN(CCC)CC1CCc2cc(Cl)c(NC(C)=O)cc21 (centres unmarked) [Compound 11a, 6-Acetylamino-5-chloro-1-(N,N-dipropylaminomethyl)indan] | 21 |
| CN(C)CC1CCc2ccc(NC=O)cc21 (centres unmarked) [Compound 1b, 1-(N,N-dimethylaminomethyl)-6-formylaminoindan] | 110 |
| CC(=O)Nc1ccc2c(c1)C(CN(C)CCN1CCNC1=O)CC2 (centres unmarked) [Compound 13d, 6-Acetylamino-1-[N-[2-(2-imidazolidinon-1-yl)ethyl]-N -methylaminomethyl]indan] | 1.8 |
| O=CNc1ccc2c(c1)C(CN1CCCCC1)CC2 (centres unmarked) [Compound 1c, 6-formylamino-1-(1-piperidinomethyl)indan] | 42 |
| CCCN(CCC)CC1CCc2ccc(NC(C)=O)cc21 (centres unmarked) [Compound 2a, 6-Acetylamino-1-(N,N-dipropylaminomethyl)indan] | 0.89 |
| CC(=O)Nc1ccc2c(c1)C(CN(C)CCCCC1CCCCC1)CC2 (centres unmarked) [Compound 13a, 6-Acetylamino-1-[N-(4-cyclohexylbutan-1-yl)-N-methylaminomethyl]indan] | 1.4 |
| CC(=O)Nc1ccc2c(c1)C(CN(C)CCCCc1ccccc1)CC2 (centres unmarked) [Compound 13b, 6-Acetylamino-1-[N-methyl-N-(4-phenylbutan-1-yl)aminomethyl]indan] | 3.4 |
| CCCN(CCC)CC1CCc2ccc(NC(=O)c3ccc(F)cc3)cc21 (centres unmarked) [Compound 2c, 1-(N,N-dipropylaminomethyl)-6-(4-fluorobenzoylamino)indan] | 5.1 |
| CCCN(CCC)CC1CCc2ccc(NC=O)cc21 (centres unmarked) [Compound 1a, 1-(N,N-dipropylaminomethyl)-6-formylaminoindan] | 4.1 |

System: not given
Test: not given
Settings: clinical studies; Glitz, Pohl, Drugs 1991; cited from earlier work

| SMILES | usefulness in the treatment of anxiety disorders (in words) |
| --- | --- |
| CC1(C)CC(=O)N(CCCCN2CCN(c3ncccn3)CC2)C(=O)C1 [gepirone, 4,4-dimethyl-1-[4-[4-(2-pyrimidyl)-1-piperazinyl]butyl]-2,6-piperidinedione] | useful in the treatment of anxiety disorders |
| O=C1c2ccccc2S(=O)(=O)N1CCCCN1CCN(c2ncccn2)CC1 [ipsapirone, 2-[4-[4-(2-pyrimidyl)-1-piperazinyl]butyl]-1,2-benzothiazol-3(2H)-one-1,1-dioxide] | useful in the treatment of anxiety disorders |

Target: T1, 5-HT1A receptors
Test: 8-OH DPAT cue agonism in rats (drug discrimination)
Type: in vivo, male Wistar rats
Design: agonist effects of a test compound on 5-HT1A receptors in vivo; from tissue; host or cells: living male Wistar rats (endogenous receptor, in vivo)
Settings: sc, read-out: 8-OH DPAT Cue Agonism ED50, rats, s.c., usually 30 or 45 min before test
Method: 8-OH DPAT Cue Agonisme in Rats
This test model is used to determine the agonist effects of a test compound on 5-HT1A receptors in vivo. A related method is described by Tricklebank, M. D., et al, Eur. J. Pharmacol., 1987, 133, 47-56; Arnt, J. Pharmacology & Toxicology, 1989, 64, 165.
Male Wistar rats are trained to discriminate between 8-OH-DPAT (0.4 mg/kg, i.p., 15 min pretreatment) and physiological saline in operant chambers equipped with two response levers. Between the levers a dipper is placed, where water rewards (0.1 ml) are presented. The rats are water deprived for at least 24 h and work in a fixed ratio (FR) schedule (final FR=32).
Following 8-OH-DPAT administration responding is reinforced only on a designated (drug) lever, whereas responding on the opposite lever has no consequences. Following saline administration responding is reinforced on the lever opposite to the drug lever. Drug and saline trials alternate randomly between days. The level of s discrimination occuracy is expressed as the per cent drug responses and is calculated as the number of correct responses ×100 divided by the sum of the correct and incorrect responses before the first reward. The time to the first reward is also recorded as a measure of reaction time. When stable occuracy (mean correst responding=90%; individual rats at least 75% correct responding) is obtained test sessions are included between training days. Test compound is injected s.c. usually 30 min or 45 min, respectively, before beginning of the test. The test trial is terminated when a total of 32 responses are made on either lever or when 20 min have elapsed. No reward is given and the rats have free access to water for 20-30 min after the test. The effects are expressed as per cent drug responding. Only results from rats making at least 10 responses on one lever are included in data analysis. Furthermore, only test sessions in which at least half of the rats respond are included.
The per cent inhibition of drug response obtained for each dose of test compound is used to calculate ED50 values by log-probit analysis.

| SMILES | ED50 [µmol/kg] |
| --- | --- |
| CCCN(CCC)CC1CCc2ccc(NC(=O)N(C)C)cc21 (centres unmarked) [Compound 4c, 6-(3,3-dimethyl-1-ureido)-1-(N,N-dipropylaminomethyl)indan] | 0.42 |
| CCCN(CCC)CC1CCc2ccc(NS(C)(=O)=O)cc21 (centres unmarked) [Compound 2g, 1-(N,N-dipropylaminomethyl)-6-(methylsulphonylamino)indan] | 0.93 |
| CCCN(CCC)CC1CSc2ccc(NC=O)cc21 (centres unmarked) [Compound 5a, 3-(N,N-dipropylaminomethyl)-5-formylamino-2,3-dihydrobenzothiophene] | 0.046 |
| CC(=O)Nc1ccc2c(c1)C(CN(C)CCCCc1c[nH]c3ccccc13)CC2 (centres unmarked) [Compound 13c, 6-Acetylamino-1-[N-[4-(indol-3-yl)butan-1-yl]-N-methylaminomethyl]indan] | 0.66 |
| CCCN(CCC)CC1CCc2cc(Cl)c(NC(C)=O)cc21 (single isomer, unassigned; (-)) [Compound 11b, (-)-6-Acetylamino-5-chloro-1-(N,N-dipropylaminomethyl)indan] | 0.44 |
| CC(=O)Nc1ccc2c(c1)C(CN(C)C)CC2 (centres unmarked) [Compound 2b, 6-Acetylamino-1-(N,N-dimethylaminomethyl)indan] | 0.21 |
| CCCN(CCC)CC1CCc2cc(Cl)c(NC(C)=O)cc21 (centres unmarked) [Compound 11a, 6-Acetylamino-5-chloro-1-(N,N-dipropylaminomethyl)indan] | 0.26 |
| CN(C)CC1CCc2ccc(NC=O)cc21 (centres unmarked) [Compound 1b, 1-(N,N-dimethylaminomethyl)-6-formylaminoindan] | 0.41 |
| CC(=O)Nc1ccc2c(c1)C(CN(C)CCN1CCNC1=O)CC2 (centres unmarked) [Compound 13d, 6-Acetylamino-1-[N-[2-(2-imidazolidinon-1-yl)ethyl]-N -methylaminomethyl]indan] | 0.61 |
| O=CNc1ccc2c(c1)C(CN1CCCCC1)CC2 (centres unmarked) [Compound 1c, 6-formylamino-1-(1-piperidinomethyl)indan] | 0.33 |
| CCCN(CCC)CC1CCc2ccc(NC(C)=O)cc21 (centres unmarked) [Compound 2a, 6-Acetylamino-1-(N,N-dipropylaminomethyl)indan] | 0.01 |
| CC(=O)Nc1ccc2c(c1)C(CN(C)CCCCC1CCCCC1)CC2 (centres unmarked) [Compound 13a, 6-Acetylamino-1-[N-(4-cyclohexylbutan-1-yl)-N-methylaminomethyl]indan] | 0.15 |
| CC(=O)Nc1ccc2c(c1)C(CN(C)CCCCc1ccccc1)CC2 (centres unmarked) [Compound 13b, 6-Acetylamino-1-[N-methyl-N-(4-phenylbutan-1-yl)aminomethyl]indan] | 0.22 |
| CCCN(CCC)CC1CCc2ccc(NC(=O)c3ccc(F)cc3)cc21 (centres unmarked) [Compound 2c, 1-(N,N-dipropylaminomethyl)-6-(4-fluorobenzoylamino)indan] | 2.2 |
| CCCN(CCC)CC1CCc2ccc(NC=O)cc21 (centres unmarked) [Compound 1a, 1-(N,N-dipropylaminomethyl)-6-formylaminoindan] | 0.0052 |
